The subject of series [1] is larvae of the mustard beetle (Phaedon cochleariae). Kind of series: Phaedon test (spray treatment). In kind it is in vivo. Conditions: for activity (kill of beetle larvae): Chinese cabbage disks sprayed, populated with Phaedon cochleariae larvae, result in words; for pest or weed control at 500 g/ha / pest or weed control at 100 g/ha: Phaedon cochleariae, 168 h, after 7 d, spray treatment, read-out: Kill rate in % after 7 d; for pest or weed control at 500 g/ha: active compound concentration 500 g/ha; for pest or weed control at 100 g/ha: active compound concentration 100 g/ha. The method, then: Phaedon Test (Spray Treatment) [table] To produce a suitable preparation of active compound, 1 part by weight of active compound is mixed with the stated amounts of solvents and emulsifier, and the concentrate is diluted with emulsifier-containing water to the desired concentration. Disks of Chinese cabbage (Brassica pekinensis) are sprayed with a preparation of active compound of the desired concentration and, once they have dried, populated with larvae of the mustard beetle (Phaedon cochleariae). After the desired period of time, the activity in % is determined. 100% means that all beetle larvae have been killed; 0% means that none of the beetle larvae have been killed.

The test system of series [2] is caterpillars of the armyworm (Spodoptera frugiperda). Description: Spodoptera frugiperda test (spray treatment). As to conditions: for pest or weed control at 500 g/ha / pest or weed control at 100 g/ha: Spodoptera frugiperda, 168 h, after 7 d, spray treatment, read-out: Kill rate in % after 7 d; for pest or weed control at 500 g/ha: active compound concentration 500 g/ha; for activity (kill of caterpillars): corn leaf disks sprayed, populated with Spodoptera frugiperda caterpillars, result in words; for pest or weed control at 100 g/ha: active compound concentration 100 g/ha. It is filed as in vivo. The method, then: Spodoptera Frugiperda Test (Spray Treatment) [table] To produce a suitable preparation of active compound, 1 part by weight of active compound is mixed with, the stated amounts of solvents and emulsifier, and the concentrate is diluted with emulsifier-containing water to the desired concentration. Disks of corn leaves (Zea mays) are sprayed with a preparation of active compound of the desired concentration and, after they have dried, populated with caterpillars of the armyworm (Spodoptera frugiperda). After the desired period of time, the activity in % is determined. 100% means that all caterpillars have been killed; 0% means that none of the caterpillars have been killed.

Series [3] in a line: logP determination by HPLC on reversed-phase column (EEC Directive 79/831 Annex V.A8). It is filed as physicochemical. As to conditions: acidic range (pH 2.3), marked a), 0.1% aqueous phosphoric acid/acetonitrile gradient, reversed-phase C 18, 43° C.; for chromatographic logP: reversed-phase C18 HPLC column. As to the method: The logP values given in the table were determined in accordance with EEC Directive 79/831 Annex V.A8 by HPLC (High Performance Liquid Chromatography) on a reversed-phase column (C 18). Temperature: 43° C. (a) Mobile phases for the determination in the acidic range (pH 2.3): 0.1% aqueous phosphoric acid, acetonitrile; linear gradient from 10% acetonitrile to 90% acetonitrile—the corresponding measurement results in table 1 are marked a). (b) Mobile phases for the determination in the neutral range (pH 7.5): 0.01-molar aqueous phosphate buffer solution, acetonitrile; linear gradient from 10% acetonitrile to 90% acetonitrile—the corresponding measurement results in table 1 are marked b). Calibration was carried out using unbranched alkan-2-ones (having 3 to 16 carbon atoms) with known logP values (determination of the logP values by the retention times using linear interpolation between two successive alkanones).

SMILES strings stand for the structures.

As usually defined, the chromatographic logP is lipophilicity estimated from chromatographic retention. A higher chromatographic logP goes with a more lipophilic compound. With `Cc1ccccc1NC(=S)N1N=C(C(C)C)CC1(O)C(F)(F)F` (stereo not drawn) [Example 32], in series [1], the “activity (kill of beetle larvae)” value is reported as “good activity” and the pest or weed control at 500 g/ha turned out to be 100%. Further, in series [2], the pest or weed control at 500 g/ha is 100% and the “activity (kill of caterpillars)” value is reported as “good activity”. Further, the chromatographic logP in series [3] was 4.1.

As for `CC(C)C1=NN(C(=O)Nc2ccccc2)C(O)(C(F)(F)F)C1` (racemic) [Example 28], the logP entry in series [3] is “logP = 3.32^a)”.

Turning to `CC(C)(C)C1=NN(C(=O)Nc2ccc(OC(F)(F)F)cc2)C(O)(C(F)(F)F)C1` (stereo not drawn) [Example 67], the logP result in series [3] is “logP = 4.41^a)”.

Take `CCC1=NN(C(=S)Nc2ccc(Cl)c(Cl)c2)C(O)(C(F)(F)F)C1` (stereo not drawn) [Example 96]: the logP entry in series [3] was “logP = 4.61^a)”.

With `CC(C)(C)C1=NN(C(=S)Nc2ccccc2)C(O)(C(F)(F)F)C1` (stereo not drawn) [Example 63], in series [1], the “activity (kill of beetle larvae)” value is “good activity” and the pest or weed control at 100 g/ha came out at 100%. Moreover, in series [2], the pest or weed control at 100 g/ha is 100% and the “activity (kill of caterpillars)” value is “good activity”. Moreover, in series [3], the chromatographic logP came out at 4.26.

Take `CCC1=NN(C(=S)Nc2c(F)cccc2F)C(O)(C(F)(F)F)C1` (stereo not drawn) [Example 84]: the logP entry in series [3] is on record as “logP = 3.30^a)”.

`CC(C)(C)C1=NN(C(=S)Nc2ccc(OC(F)(F)F)cc2)C(O)(C(F)(F)F)C1` (stereo not drawn) [Example 64]: in series [1], the “activity (kill of beetle larvae)” value is “good activity” and the pest or weed control at 100 g/ha was 100%. Also, in series [2], the pest or weed control at 100 g/ha is 100% and the “activity (kill of caterpillars)” value is given as “good activity”. The chromatographic logP in series [3] came to 4.94.

On to `CC(C)CC1=NN(C(=S)Nc2ccccc2F)C(O)(C(F)(F)F)C1` (racemic) [Example 11], for which the logP result in series [3] is “logP = 4.23^a)”.

In the case of `CC(C)C1=NN(C(=S)Nc2cccnc2)C(O)(C(F)(F)F)C1` (racemic) [Example 35], in series [3], the logP result is on record as “logP = 1.96^a)”.

Take `CCC1=NN(C(=O)Nc2ccc(F)cc2)C(O)(C(F)(F)F)C1` (stereo not drawn) [Example 50]: in series [3], the logP entry is “logP = 2.96^a)”.

Take `CC1=NN(C(=S)Nc2ccc(C)cc2)C(O)(C(F)(F)F)C1` (stereo not drawn) [Example 119]: in series [3], the logP result is recorded as “logP = 3.49^a)”.

For `CC(C)C1=NN(C(=O)Nc2ccccn2)C(O)(C(F)(F)F)C1` (racemic) [Example 48], the logP entry in series [3] was “logP = 1.78^a)”.

As to `CC(C)(C)C1=NN(C(=S)NCc2ccc(Cl)cc2)C(O)(C(F)(F)C(F)(F)F)C1` (stereo not drawn) [Example 132], the logP entry in series [3] is given as “logP = 5.32^a)”.

With `CC(C)CC1=NN(C(=S)Nc2ccccc2)C(O)(C(F)(F)F)C1` (racemic) [Example 7], in series [3], the logP result is “logP = 4.31^a)”.

On to `CC(C)CC1=NN(C(=O)Nc2ccc(Cl)c(Cl)c2)C(O)(C(F)(F)F)C1` (racemic) [Example 4], for which, in series [3], the logP result is “logP = 4.63^a)”.

`CCC1=NN(C(=S)Nc2ccc(Cl)cc2)C(O)(C(F)(F)F)C1` (stereo not drawn) [Example 53]: in series [1], the “activity (kill of beetle larvae)” value is given as “good activity” and the pest or weed control at 500 g/ha amounted to 100%. This compound also had a chromatographic logP in series [3] of 4.07.

As to `CC(C)CC1=NN(C(=O)Nc2ccccc2)C(O)(C(F)(F)F)C1` (racemic) [Example 3], the logP result in series [3] is listed as “logP = 3.72^a)”.

As to `CCC1=NN(C(=S)Nc2cc(Cl)cc(Cl)c2)C(O)(C(F)(F)F)C1` (stereo not drawn) [Example 92], the logP entry in series [3] is listed as “logP = 4.75^a)”.

Consider `CCC1=NN(C(=O)Nc2ccc(C#N)cc2)C(O)(C(F)(F)F)C1` (stereo not drawn) [Example 51], for which, in series [3], the logP entry is “logP = 2.65^a)”.

For the compound `COc1ccc(NC(=S)N2N=C(C(C)(C)C)CC2(O)C(F)(F)F)cc1` (stereo not drawn) [Example 61], the logP entry in series [3] was “logP = 3.54^a)”.

Consider `CCC1=NN(C(=S)Nc2ccccc2F)C(O)(C(F)(F)F)C1` (stereo not drawn) [Example 98], for which, in series [3], the logP entry was “logP = 3.51^a)”.

`CC(C)(C)C1=NN(C(=O)NCc2ccccc2Cl)C(O)(C(F)(F)F)C1` (stereo not drawn) [Example 72]: the logP entry in series [3] was “logP = 3.97^a)”.

On to `CCC1=NN(C(=S)Nc2ccc(Cl)cc2Cl)C(O)(C(F)(F)F)C1` (stereo not drawn) [Example 57], for which the logP result in series [3] is reported as “logP = 4.53^a)”.

On to `CC(C)(C)C1=NN(C(=O)NC2CCCCC2)C(O)(C(F)(F)F)C1` (stereo not drawn) [Example 66], for which the logP entry in series [3] was “logP = 3.68^a)”.

Turning to `CC1=NN(C(=S)Nc2cc(Cl)cc(Cl)c2)C(O)(C(F)(F)F)C1` (stereo not drawn) [Example 109], in series [3], the logP entry was “logP = 4.18^a)”.

As for `CCC1=NN(C(=O)Nc2ccc(Cl)cc2)C(O)(C(F)(F)F)C1` (racemic) [Example 13], the logP entry in series [3] was “logP = 3.41^a)”.

With `CCC1=NN(C(=O)Nc2cc(Cl)cc(Cl)c2)C(O)(C(F)(F)F)C1` (stereo not drawn) [Example 76], the logP entry in series [3] was “logP = 4.34^a)”.

With `CC1=NN(C(=O)Nc2ccc(F)cc2)C(O)(C(F)(F)F)C1` (stereo not drawn) [Example 117], in series [3], the logP entry is reported as “logP = 2.70^a)”.

As for `OC1(C(F)(F)F)CC(c2ccccc2)=NN1C(=S)Nc1ccc(Cl)cc1` (stereo not drawn) [Example 83], in series [2], the pest or weed control at 500 g/ha turned out to be 100% and the “activity (kill of caterpillars)” value is recorded as “good activity”. The same compound had a chromatographic logP in series [3] of 4.58.

Consider `CCC1=NN(C(=S)Nc2ccc(F)cc2)C(O)(C(F)(F)F)C1` (stereo not drawn) [Example 93], for which, in series [3], the logP entry was “logP = 3.62^a)”.

In the case of `CC(C)(C)C1=NN(C(=S)Nc2ccc(Cl)cc2)C(O)(C(F)(F)C(F)(F)F)C1` (stereo not drawn) [Example 135], the logP entry in series [3] is reported as “logP = 5.19^a)”.

With `CCC1=NN(C(=S)Nc2ccc(C(C)(C)C)cc2)C(O)(C(F)(F)F)C1` (stereo not drawn) [Example 99], the logP result in series [3] is “logP = 4.85^a)”.

`OC1(C(F)(F)F)CC(C2(Cl)CC2)=NN1C(=S)Nc1ccc(C(F)(F)F)cc1` (stereo not drawn) [Example 78]: in series [3], the logP result was “logP = 4.41^a)”.

As for `CCC1=NN(C(=S)Nc2c(F)cc(F)cc2F)C(O)(C(F)(F)F)C1` (stereo not drawn) [Example 89], the logP result in series [3] is listed as “logP = 3.52^a)”.

`CC(C)C1=NN(C(=S)Nc2ccc(C(C)(C)C)cc2)C(O)(C(F)(F)F)C1` (racemic) [Example 21]: in series [3], the logP result is reported as “logP = 5.18^a)”.

Regarding `CC1=NN(C(=O)Nc2ccc(Cl)c(Cl)c2)C(O)(C(F)(F)F)C1` (stereo not drawn) [Example 116], the logP entry in series [3] is given as “logP = 3.84^a)”.

Take `CC1=NN(C(=S)Nc2ccccc2F)C(O)(C(F)(F)F)C1` (stereo not drawn) [Example 120]: the logP result in series [3] is “logP = 3.05^a)”.

In the case of `CC1=NN(C(=S)NCc2ccccc2F)C(O)(C(F)(F)F)C1` (stereo not drawn) [Example 124], the logP result in series [3] was “logP = 3.53^a)”.

As to `CC(C)(C)C1=NN(C(=S)NC2CCCCC2)C(O)(C(F)(F)F)C1` (stereo not drawn) [Example 73], in series [1], the “activity (kill of beetle larvae)” value is “good activity” and the pest or weed control at 100 g/ha amounted to 100%. Besides, in series [2], the pest or weed control at 100 g/ha came out at 100% and the “activity (kill of caterpillars)” value is given as “good activity”.

Regarding `CC(C)(C)C1=NN(C(=S)Nc2ccc(Cl)cc2)C(O)(C(F)F)C1` (stereo not drawn) [Example 142], the logP entry in series [3] was “logP = 4.50^a)”.

With `CC(C)(C)C1=NN(C(=O)Nc2ccc(C#N)cc2)C(O)(C(F)(F)F)C1` (stereo not drawn) [Example 60], the logP result in series [3] is “logP = 3.34^a)”.

For the compound `CC(C)(C)C1=NN(C(=O)Nc2ccccc2)C(O)(C(F)(F)F)C1` (stereo not drawn) [Example 65], the logP entry in series [3] is listed as “logP = 4.58^a)”.

Regarding `CCC1=NN(C(=O)Nc2ccccc2)C(O)(C(F)(F)F)C1` (racemic) [Example 39], in series [3], the logP entry is listed as “logP = 2.91^a)”.

As for `CC(C)C1=NN(C(=S)Nc2ccc(OC(F)(F)F)cc2)C(O)(C(F)(F)F)C1` (racemic) [Example 36], in series [3], the logP result is “logP = 4.61^a)”.
